Measured values published in patent US10450613B2, “EGFR/NEDD9/TGF-β interactome and methods of use thereof for the identification of agents having efficacy in the treatment of hyperproliferative disorders” (Fox Chase Cancer Center, priority 2007, dated 2019).

What was measured:
HCT116 cells [1] = experiment: Apoptosis after drug combination treatment; type: cell-based, human; settings: HCT116, 72 hours (FIG. 17C)
[2] = test system: EGFR, ERK1/2 and AKT phosphorylation; experiment: Western analysis of EGFR pathway after inhibitor treatment and EGF stimulation; type: cell-based, human
cancer cells = experiment: Drug synergy testing (Chou-Talalay CI), cell line not stated (FIG. 17B); type: cell-based
Method: (§1) The coefficient of interaction (CI) between pharmacological inhibitors was established by the Chou-Talalay method (Chou et al., (1984) Adv Enzyme Regul 22:27). The software package CalcuSyn (BioSoft, UK) was used to automate calculations. Briefly, for each drug tested, an IC50 curve was established in each cell line, and used to select combination doses of drugs for subsequent synergy tests. 3500 cells were plated per well in 96-well plates. After 24 hours, cells were treated with serial dilutions of individual inhibitors, or combinations of two inhibitors maintained at a constant molar ratio. After 72 hours incubation, cell viability was measured using either CellTiter Blue (Promega, USA) or a WST1 assay (Roche Applied Science, Indianapolis, Ind.). The CI values for each dose and corresponding cytotoxicity were expressed as the fraction affected (Fa) and were calculated using CalcuSyn computer software and presented as Fa-CI plots. CI values <1 indicate synergy, and <0.5 strong synergy, between the two agents in producing cytotoxic effect.

A431 cells [3] = experiment: Phosphoproteomic analysis, Proteome Profiler array of 46 signaling proteins; type: cell-based, human
Method: For phosphoproteomic analysis, we used the Proteome Profiler™ array (R&D Systems, Minneapolis, Minn., USA) according to the manufacturer's protocol. In brief, A431 cells were grown for 24 hours in DMEM supplemented with L-glutamine and 1% FBS to 70% confluency. Cells then were either serum starved overnight or remained in the same media. Serum starved and cells incubated in 1% serum were either left untreated or incubated with IC30 concentrations of inhibitors for 3 hours. […] Serum-starved cells were subsequently stimulated with recombinant EGF (Sigma-Aldrich, USA) at 15 ng/mL for 15 minutes before lysis. For a subset of phospho-proteins, phosphorylation status was confirmed by Western blot. Quantification was done using ImageJ software.

HCT116 cells [4] = experiment: Drug synergy testing (Chou-Talalay CI), viability; type: cell-based, human
Method: as §1

A431 cells [5] = experiment: Drug synergy testing (Chou-Talalay CI), viability; type: cell-based, human; settings: 72 hours, CI <1 synergy, <0.5 strong synergy
Method: as §1

[6] = PHA-680632 alone, transient EGF stimulation
[7] = A431, serum starved, EGF-stimulated (FIG. 19A)

SMILES: CCc1cccc(CC)c1NC(=O)N1Cc2n[nH]c(NC(=O)c3ccc(N4CCN(C)CC4)cc3)c2C1 [PHA-680632]
- Frequency of apoptosis, combination with erlotinib (HCT116 cells [1]): increases apoptosis
- S473-AKT phosphorylation, combination with erlotinib ([2]; 3 hrs inhibitors then EGF, vs either agent alone (FIGS. 17H, 18; HCT116)): very significantly reduced
- EGFR expression, autophosphorylation, and activation [2, 6]: did not inhibit
- ERK1/2 or AKT phosphorylation [2, 6]: little effect
- Synergy with cetuximab (Chou-Talalay CI) (cancer cells): synergized
- Phosphorylation of 46 signaling proteins, combination of erlotinib and PHA-680632 (A431 cells [3]; A431, 1% serum steady state, erlotinib 0.5 μM plus PHA 0.1 μM (FIG. 19B)): significant reduction in activity of STAT3, and a group of Src kinases
- Phosphorylation of 46 signaling proteins, combination of erlotinib and PHA-680632 (A431 cells [3]; [7]): specific inhibition of a subset of proteins
- Phosphorylation of 46 signaling proteins, single agent (A431 cells [3]; [7]): little effect
- Cell viability, combination with erlotinib (HCT116 cells [4]; HCT116 (FIG. 17D)): Dose-dependent inhibition
- Synergy with erlotinib in reducing viability (Chou-Talalay CI) (HCT116 cells [4]; HCT116, 72 hours, CI <1 synergy, <0.5 strong synergy): synergized strongly
- Synergy with erlotinib in reducing viability (Chou-Talalay CI) (A431 cells [5]): synergized strongly
